In US8822500B2, “Tyrosine kinase inhibitors” (Chembridge Corporation, priority 2008, dated 2014):
“And” between values parts separate entries of the source, which are not always exact repeats. Identical values can stand only once. Like-named read-outs stand apart in the source and are kept apart here.

Key:
ALK = ALK (Homo sapiens (Human), UniProt Q9UM73); experiment: In vitro kinase activity assay (LANCE TR-FRET); assay type: biochemical; details: read-out: GTx-ALK IC50;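 also: kinase reactions with ATP and a poly-GT peptide substrate, phosphorylated product read by time-resolved FRET, 11-point curve from 10^−11 to 10^−5 M, DMSO as negative control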
Sequence of ALK (Q9UM73 19-1620): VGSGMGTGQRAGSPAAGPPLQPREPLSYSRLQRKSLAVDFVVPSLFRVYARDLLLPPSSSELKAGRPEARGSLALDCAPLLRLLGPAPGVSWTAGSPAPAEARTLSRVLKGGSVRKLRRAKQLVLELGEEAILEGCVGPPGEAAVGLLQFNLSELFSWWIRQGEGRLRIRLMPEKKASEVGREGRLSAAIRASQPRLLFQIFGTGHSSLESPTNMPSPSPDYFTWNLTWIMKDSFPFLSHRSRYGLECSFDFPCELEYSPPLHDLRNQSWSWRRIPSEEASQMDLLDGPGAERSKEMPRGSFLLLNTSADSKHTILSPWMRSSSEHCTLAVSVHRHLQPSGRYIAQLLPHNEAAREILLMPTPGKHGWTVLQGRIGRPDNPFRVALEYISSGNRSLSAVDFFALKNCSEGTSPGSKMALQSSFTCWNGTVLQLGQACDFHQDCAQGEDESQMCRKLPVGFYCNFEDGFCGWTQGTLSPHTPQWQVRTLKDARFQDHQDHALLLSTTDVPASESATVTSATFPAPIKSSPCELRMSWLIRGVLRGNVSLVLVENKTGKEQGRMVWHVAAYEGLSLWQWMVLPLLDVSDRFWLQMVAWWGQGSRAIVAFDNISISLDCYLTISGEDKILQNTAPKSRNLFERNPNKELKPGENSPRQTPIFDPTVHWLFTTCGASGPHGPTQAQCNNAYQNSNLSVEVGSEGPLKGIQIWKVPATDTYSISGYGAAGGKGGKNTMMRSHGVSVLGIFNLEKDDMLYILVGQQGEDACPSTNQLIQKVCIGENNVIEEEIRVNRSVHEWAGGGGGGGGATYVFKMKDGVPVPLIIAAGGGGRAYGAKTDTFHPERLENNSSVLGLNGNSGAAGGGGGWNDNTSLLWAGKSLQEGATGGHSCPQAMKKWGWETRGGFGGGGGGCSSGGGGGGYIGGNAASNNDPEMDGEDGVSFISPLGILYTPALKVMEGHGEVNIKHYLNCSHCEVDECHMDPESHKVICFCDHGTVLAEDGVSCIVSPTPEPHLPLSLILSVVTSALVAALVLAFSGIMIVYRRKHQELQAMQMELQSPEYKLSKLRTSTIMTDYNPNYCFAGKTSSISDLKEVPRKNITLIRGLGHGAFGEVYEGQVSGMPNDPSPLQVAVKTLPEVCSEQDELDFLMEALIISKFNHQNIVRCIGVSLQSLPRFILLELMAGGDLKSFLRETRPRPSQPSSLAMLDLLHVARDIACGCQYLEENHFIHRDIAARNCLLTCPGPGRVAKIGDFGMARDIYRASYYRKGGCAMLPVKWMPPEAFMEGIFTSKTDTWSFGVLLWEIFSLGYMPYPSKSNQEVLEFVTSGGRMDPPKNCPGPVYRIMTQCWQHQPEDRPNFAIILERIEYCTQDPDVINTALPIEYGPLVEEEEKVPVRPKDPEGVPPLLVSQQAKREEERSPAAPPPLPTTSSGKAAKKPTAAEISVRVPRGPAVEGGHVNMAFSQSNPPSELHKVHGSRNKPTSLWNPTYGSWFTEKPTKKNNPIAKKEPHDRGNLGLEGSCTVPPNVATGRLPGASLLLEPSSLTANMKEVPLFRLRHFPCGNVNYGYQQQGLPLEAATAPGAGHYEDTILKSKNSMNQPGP

[1] = test system: EML4-ALK R1275Q BaF3 cells; experiment: BaF3 stables cell viability (WST-1); details: Mus musculus, BaF3, read-out: BaF3 Stables IC50 nM R1275Q, EML4-ALK construct
ALK R1275Q = ALK R1275Q (Homo sapiens (Human), UniProt Q9UM73, R1275Q); experiment: Cell free kinase assay (Carna Biosciences kinases); assay type: biochemical
Sequence of ALK R1275Q (Q9UM73 1060-1620 R1275Q): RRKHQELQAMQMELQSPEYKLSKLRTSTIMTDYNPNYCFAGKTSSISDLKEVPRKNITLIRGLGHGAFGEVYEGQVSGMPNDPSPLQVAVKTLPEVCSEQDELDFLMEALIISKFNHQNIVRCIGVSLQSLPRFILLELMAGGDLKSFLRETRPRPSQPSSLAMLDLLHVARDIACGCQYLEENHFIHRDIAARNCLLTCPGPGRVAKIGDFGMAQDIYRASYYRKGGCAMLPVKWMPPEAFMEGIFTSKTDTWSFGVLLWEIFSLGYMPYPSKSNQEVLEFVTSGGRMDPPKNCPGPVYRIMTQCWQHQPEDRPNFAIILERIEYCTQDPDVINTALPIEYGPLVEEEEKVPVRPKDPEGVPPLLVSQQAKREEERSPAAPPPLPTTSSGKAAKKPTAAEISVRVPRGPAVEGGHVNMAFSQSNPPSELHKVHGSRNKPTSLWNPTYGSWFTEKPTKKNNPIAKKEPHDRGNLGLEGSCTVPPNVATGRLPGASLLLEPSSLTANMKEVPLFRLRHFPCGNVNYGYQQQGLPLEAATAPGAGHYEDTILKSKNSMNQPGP

[2] = test system: NPM-ALK R1275Q BaF3 cells; experiment: BaF3 stables cell viability (WST-1); details: Mus musculus, BaF3, read-out: BaF3 Stables IC50 nM R1275Q
ALK (WT) = ALK (WT) (Homo sapiens (Human), UniProt Q9UM73); experiment: Cell free kinase assay (Carna Biosciences kinases); assay type: biochemical
Sequence of ALK (WT) (Q9UM73 1060-1620): as the sequence (Q9UM73 1060-1620 R1275Q) above, with Q216R counted along it

[3] = test system: EML4-ALK C1156Y BaF3 cells; experiment: BaF3 stables cell viability (WST-1); details: Mus musculus, BaF3, read-out: BaF3 Stables IC50 nM C1156Y
FLT3-ITD BaF3 cells = experiment: BaF3 stables cell viability (WST-1); details: Mus musculus, BaF3, read-out: BaF3 Stables IC50 nM FLT3-ITD
EML4-ALK BaF3 cells = experiment: BaF3 stables cell viability (WST-1); details: Mus musculus, BaF3, read-out: BaF3 Stables IC50 nM EML4-ALK
NPM-ALK BaF3 cells = experiment: BaF3 stables cell viability (WST-1); details: Mus musculus, BaF3, read-out: BaF3 Stables IC50 nM NPMALK
[4] = test system: NPM-ALK C1156Y BaF3 cells; experiment: BaF3 stables cell viability (WST-1); details: Mus musculus, BaF3, read-out: BaF3 Stables IC50 nM C1156Y
RET = RET (Homo sapiens (Human), UniProt P07949); experiment: In vitro kinase activity assay (LANCE TR-FRET); assay type: biochemical; details: read-out: RET (nM) IC50
[5] = Metabolic stability, Phase I microsome reactions; assay type: in vitro ADME, mouse; details: mouse, pH 7.4, Phase I only, 1.0 mg/ml microsomes, read-out: Mouse LM-P1 Half-life
Mouse pharmacokinetics = details: for AUC: plasma, 10 mg/kg
TrkB = TrkB (Homo sapiens (Human), UniProt Q16620); experiment: In vitro kinase activity assay (LANCE TR-FRET); assay type: biochemical; details: read-out: TrkB (nM) IC50
U937 lymphoma cells = experiment: Cellular assay, 3 day cell viability (WST-1); assay type: cell-based; details: Homo sapiens, U-937, 72 h; 3 days, WST-1; read-out: U937 IC50
in vitro [6] = details: rat, microsomes
[7] = Caco-2 cell permeation study; assay type: in vitro ADME; details: human, Caco-2, 10 μM;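 also: Caco-2 monolayers grown for 21–28 days with integrity confirmed by TEER, apical buffer HBSS with MES, basolateral buffer HBSS with HEPES, compound levels quantified by LC/MS/MS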
[8] = Metabolic stability, Phase I microsome reactions; details: rat, microsomes
[9] = Rat pharmacokinetics / bioavailability; assay type: in vivo
[10] = Guinea pig pharmacokinetics; details: for AUC(0-t): plasma, 10 mg/kg
K299 lymphoma cells = experiment: Cellular assay, 3 day cell viability (WST-1); assay type: cell-based; details: 3 days, read-out: K299 IC50
[11] = microsomes, 0.5 μM, pH 7.4
NB-1 neuroblastoma cells = experiment: Cellular assay, 3 day cell viability (WST-1); assay type: cell-based; details: 72 h, 3 days, WST-1, read-out: NB-1 IC50
[12] = biological target: hERG (human ether-a-go-go related gene) potassium channel (Homo sapiens (Human), UniProt Q12809); experiment: hERG potassium channel current, automated patch clamp (PatchXpress 7000A);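 also: Four-point series of 0.3, 3, 10 and 30 µM, two cells recorded per concentration, 5 min exposure at each level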
Sequence of hERG (human ether-a-go-go related gene) potassium channel (Q12809 whole entry): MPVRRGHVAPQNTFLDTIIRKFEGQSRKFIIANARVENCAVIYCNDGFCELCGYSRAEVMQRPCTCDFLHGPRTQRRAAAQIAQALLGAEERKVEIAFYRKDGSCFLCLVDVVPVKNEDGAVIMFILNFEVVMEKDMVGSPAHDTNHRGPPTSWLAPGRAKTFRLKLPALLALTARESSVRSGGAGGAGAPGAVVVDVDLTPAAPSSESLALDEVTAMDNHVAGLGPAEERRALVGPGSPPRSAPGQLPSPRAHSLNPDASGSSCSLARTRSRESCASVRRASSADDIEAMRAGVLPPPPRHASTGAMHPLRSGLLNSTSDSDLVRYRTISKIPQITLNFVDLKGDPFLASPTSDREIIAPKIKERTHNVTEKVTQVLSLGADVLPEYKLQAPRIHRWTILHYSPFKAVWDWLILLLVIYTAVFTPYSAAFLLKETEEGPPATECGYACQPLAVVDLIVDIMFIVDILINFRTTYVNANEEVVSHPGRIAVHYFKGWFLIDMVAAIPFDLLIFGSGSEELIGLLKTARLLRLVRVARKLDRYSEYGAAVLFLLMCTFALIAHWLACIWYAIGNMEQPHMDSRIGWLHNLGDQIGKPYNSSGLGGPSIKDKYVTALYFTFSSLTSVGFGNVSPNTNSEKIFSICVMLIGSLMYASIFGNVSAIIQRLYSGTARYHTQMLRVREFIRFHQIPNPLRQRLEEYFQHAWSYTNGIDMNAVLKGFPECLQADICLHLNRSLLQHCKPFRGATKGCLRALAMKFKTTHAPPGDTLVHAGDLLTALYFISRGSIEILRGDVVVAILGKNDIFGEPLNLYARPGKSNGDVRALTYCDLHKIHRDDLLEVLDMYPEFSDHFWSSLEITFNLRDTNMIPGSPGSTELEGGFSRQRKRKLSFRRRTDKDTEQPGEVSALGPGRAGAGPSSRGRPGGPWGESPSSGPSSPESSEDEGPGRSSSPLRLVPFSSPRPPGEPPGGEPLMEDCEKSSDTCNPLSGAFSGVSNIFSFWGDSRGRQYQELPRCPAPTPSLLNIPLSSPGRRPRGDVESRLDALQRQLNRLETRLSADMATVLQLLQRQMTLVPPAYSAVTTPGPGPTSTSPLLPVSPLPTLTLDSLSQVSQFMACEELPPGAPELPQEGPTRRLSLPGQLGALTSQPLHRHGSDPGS

hERG potassium channel = hERG potassium channel (Homo sapiens (Human), UniProt Q12809); experiment: as above; details: human; for inhibition at 5 min, 30 µM: 30 μM (low solubility at this concentration)
Sequence of hERG potassium channel (Q12809 whole entry): as above

in vitro [13] = details: human, microsomes
ROS = ROS (Homo sapiens (Human), UniProt P08922); experiment: In vitro kinase activity assay (LANCE TR-FRET); assay type: biochemical; details: read-out: ROS (nM) IC50
SUDHL-1 lymphoma cells = experiment: Cellular assay, 3 day cell viability (WST-1); assay type: cell-based; details: 3 days, WST-1; read-out: SUDHL-1 IC50
[14] = male, Sprague-Dawley, plasma, iv, 10 mg/kg I.V.
[15] = male, Sprague-Dawley, plasma, po, 10 mg/kg P.O.
[16] = Individual Data Points (% Inhibition)
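For Human LM-P1 Half-life (min) in this document: liver microsomes at 1.0 mg/ml with NADPH regenerating system, 37 °C, sampled at 0, 5, 10, 30 and 60 min, parent compound quantified by LC-MS/MS.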

Cc1ccc(F)cc1C[C@H](C)Nc1cc[nH]c(=O)c1-c1nc2cc3c(cc2[nH]1)CN(CCN(C)C)C3=O (stereo in doubt) [Compound 45, 2-(4-(1-(5-Fluoro-2-methylphenyl)propan-2-ylamino)-2-oxo-1,2-dihydropyridin-3-yl)-6-(2-(dimethylamino)ethyl)-6,7-dihydroimidazo[4,5-f]isoindole-5(1H)-one]
IC50 (ALK): 0.007 µM and 0.014 µM
IC50 [1]: ~90 nM
IC50 (ALK R1275Q; read-out: Cell Free IC50 (nM) R1275O): 16.8 nM
cell free R1275Q resistance (ALK R1275Q; vs ALK (WT)): 4 fold
IC50 [2]: 81 ± 4.2 nM
IC50 (ALK (WT)): 3.3 nM
IC50 [3]: 90 ± 3.2 nM
IC50 (FLT3-ITD BaF3 cells): > 1 nM
IC50 (EML4-ALK BaF3 cells): 66 ± 2.7 nM
IC50 (NPM-ALK BaF3 cells): 46 ± 2 nM
IC50 [4]: 72 ± 1.2 nM

C[C@@H](Cc1c(F)c(F)cc(F)c1F)Nc1cc[nH]c(=O)c1-c1nc2cc3c(cc2[nH]1)CN(CCN(C)C)C3=O [Compound 1, (S)-6-(2-(Dimethylamino)ethyl)-2-(2-oxo-4-((1-(2,3,5,6-tetrafluorophenyl)propan-2-yl)amino)-1,2-dihydropyridin-3-yl)-6,7-dihydroimidazo[4,5-f]isoindol-5(3H)-one]
IC50 (RET): 3.53 nM
half-life at 0.5 μM [5]: 8.4 min
F (Mouse pharmacokinetics; 10 mg/kg SC): 30%
AUC (Mouse pharmacokinetics; iv): 1770 ng·h/mL
AUC (Mouse pharmacokinetics; sc): 522 ng·h/mL
IC50 (TrkB): 2.06 nM
IC50 (U937 lymphoma cells): 1.6 µM
half-life at 0.5 μM (in vitro [6]; pH 7.4): 8.43 min
microsomal CLint at 0.5 μM (in vitro [6]; pH 7.4, Rat LM-P1 CL (ul/min/mg)): 82.2 µL/min/mg
Papp A→B at 2 h, 10 μM ([7]; apical pH 6.5, 2 h): < 0.2 ×10⁻⁶ cm/s
Papp B→A at 2 h, 10 μM ([7]; basolateral pH 7.4, 2 h): 19.9 ×10⁻⁶ cm/s
microsomal CLint at 0.5 μM ([8]; pH 7.4): 100 µL/min/mg
half-life at 0.5 μM ([8]; pH 7.4, Rat LM-P1 Half-life (min), Phase I only, 0.5 μM, 1.0 mg/ml microsomes): 6.99 min
IC50 [2]: 279 ± 21 nM
F (Dog pharmacokinetics; 5 mg/kg PO): 12%
AUC(0-t) (Dog pharmacokinetics; plasma, iv, 1 mg/kg): 483 ng·h/mL
AUC (Dog pharmacokinetics; plasma, po, 5 mg/kg): 287 ng·h/mL
IV_AUC0-1440 Rat 10 mpk ([9]; 10 mg/kg I.V.): 329 µg·min/mL
PO_AUC0-1440 Rat 10 mpk ([9]; 10 mg/kg P.O.): 0.943 µg·min/mL
MRT [9, 14]: 22.7 h
clearance [9, 14]: 25.5 mL/min/kg
half-life [9, 14]: 22.1 h
Vd ([9]; male, Sprague-Dawley, plasma, iv, 10 mg/kg I.V., read-out: Vss): 23.9 L/kg
Cmax [9, 15]: 2.21 ng/mL
Tmax [9, 15]: 1.88 h
bioavailability ([9]; male, Sprague-Dawley, plasma, po, 10 mg/kg P.O., read-out: Rat F %): 0.287%
F ([10]; 10 mg/kg PO): 1%
AUC(0-t) ([10]; iv): 3570 ng·h/mL
AUC(0-t) ([10]; po): 37.2 ng·h/mL
IC50 (FLT3-ITD BaF3 cells): > 3 nM
IC50 (K299 lymphoma cells; 72 h): 0.076 µM
IC50 (K299 lymphoma cells): 0.073 µM
Human LM-P1 Half-life [11]: >2 h
IC50 (NB-1 neuroblastoma cells): 0.177 µM
IC50 [12]: 6.25 µM
Individual Data Points (% Inhibition) ([12]; 0.3 μM): 5.0%
Individual Data Points (% Inhibition) ([12]; 3 μM): 36.3%
Individual Data Points (% Inhibition) ([12]; 10 μM): 49.4%
Individual Data Points (% Inhibition) ([12]; 30 μM (low solubility at this concentration)): 62.7%
inhibition at 5 min, 0.3 µM (hERG potassium channel; [16]): 5.9%
inhibition at 5 min, 3 µM (hERG potassium channel; [16]): 43.6%
inhibition at 5 min, 10 µM (hERG potassium channel; [16]): 59.4%
inhibition at 5 min, 30 µM (hERG potassium channel; [16]): 71.1%
inhibition at 5 min, 0.3 µM (hERG potassium channel; Mean % hERG Inhibition): 5.5%
inhibition at 5 min, 3 µM (hERG potassium channel; Mean % hERG Inhibition): 39.9%
inhibition at 5 min, 10 µM (hERG potassium channel; Mean % hERG Inhibition): 54.4%
inhibition at 5 min, 30 µM (hERG potassium channel; Mean % hERG Inhibition): 66.9%
microsomal CLint at 0.5 μM (in vitro [13]; pH 7.4, Human LM-P1 CL (ul/min/mg)): 5.87 µL/min/mg
half-life at 0.5 μM (in vitro [13]; pH 7.4, Human LM-P1 Half-life (min)): 1.97 h
IC50 (ROS): 0.205 nM
IC50 (SUDHL-1 lymphoma cells): 0.022 µM
